By IC50 is commonly meant the midpoint of a concentration-inhibition curve.

Where two headings read alike, the source gives them in different places.

Here are results for seven compounds from US11441162B2, “Human gut microbiome-derived biosynthetic enzymes for production of fatty acid amides” (Massachusetts Institute of Technology, priority 2019, dated 2022).

Assay [1] has as its target T1, GPR132 (Homo sapiens, UniProt Q9UNW8).
T1 sequence (Q9UNW8 1-380): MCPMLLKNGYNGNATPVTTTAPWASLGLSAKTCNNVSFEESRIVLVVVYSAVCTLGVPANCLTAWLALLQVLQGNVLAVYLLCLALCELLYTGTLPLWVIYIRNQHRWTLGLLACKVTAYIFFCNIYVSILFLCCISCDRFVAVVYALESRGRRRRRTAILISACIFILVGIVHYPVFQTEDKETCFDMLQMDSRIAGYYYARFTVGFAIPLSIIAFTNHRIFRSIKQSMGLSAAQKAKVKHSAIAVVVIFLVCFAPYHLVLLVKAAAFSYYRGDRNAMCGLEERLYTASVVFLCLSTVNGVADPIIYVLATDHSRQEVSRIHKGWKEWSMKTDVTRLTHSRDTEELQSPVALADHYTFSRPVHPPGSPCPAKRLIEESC
The note with it: previously reported human microbiome-derived FAA GPCR modulator; read-out: GPR132 agonist at (previously reported); cited from earlier work.

Assay [2] has as its system C protein of the L. clostridioforme, B. producta, C. celatum, C. sp pathways. Description: Substrate panel assay, condensation activity on amine panel. It counts as biochemical, Clostridia. The note with it: highest amine substrate of the panel for these four pathways; α-linolenic acid as fatty acid. Here is the method:
The human gut lumen consists of various fatty acid and amine substrates from different sources that the pathway can incorporate for FAA production. To characterize the preferred product, an in vitro substrate panel assay was set up to investigate substrate selectivity of the biosynthetic enzymes for each of the eight identified HMP-derived pathways (FIG. 2A). A and C enzyme activity was measured for defined fatty acid and amines, respectively, to determine the substrates that each pathway prefers to incorporate for FAA production (FIG. 2B-2C). A panel of 25 fatty acids and 53 biogenic amines derived from Clostridia, human cells, and human diet that are known to be abundant in the human gut was selected (FIG. 2D).^43,44,45,46,47 For consistency, FAA product level, instead of PPi level, was used as the metric of A activity for the panel assay by adding tryptamine for all query fatty acid substrates to measure the level of C-independent FAA formation based on the UV absorbance of the indole chromophore (FIG. 2B). […]
For adenylation activity, adenylation and thiolation proteins (no condensation) were added with the query fatty acid substrate(s) and tryptamine as a UV-active chromophore. […] The reaction was mixed with equal volume of methanol, spun down at 21,000 g for 1 min, and analyzed with the same analytical LCMS run as described previously. […]

The target of the next assay is EBI2/GPR183 (Homo sapiens, UniProt P32249). Description: Cell-based β-arrestin reporter assay (DiscoverX), EBI2 antagonist mode: panel at 10 uM and concentration-response. The note with it: for inhibition on EBI2 (concentration-response, in words): antagonist mode against 7α,25-diHC; for IC50: in the presence of native agonist 7α,25-dihydroxycholesterol at 0.232 uM (EC80), ten concentrations 100 to 0.0051 uM, read-out: IC50, inhibitory activity on EBI2. Here is the method:
FIGS. 31A-31H show GPCR activity assay of lauroyl tryptamine. a, Cell-based β-arrestin reporter assay (DiscoveRx) with a panel of 168 GPCRs with known ligands in agonist mode and antagonist mode, and also 73 orphan GPCRs in agonist mode at 10 uM. Agonist mode measures % activity of target GPCR by the compound, relative to the baseline value (0% activity) and maximum value with a known ligand, or twofold increase over baseline for orphan GPCR (100% activation). Antagonist mode measures % inhibition of target GPCR by the compound in the presence of a known ligand, relative to the value at the EC80 (0% inhibition) and basal value (100% inhibition). […] EBI2 antagonist activity (δ1%) is marked with an asterisk (*). b, Concentration-dose response curves of the inhibitory activity of lauroyl tryptamine, tryptamine, and lauric acid on EBI2 in the presence of the native agonist 7α,25-dihydroxycholesterol (7a,25-diHC) at 0.232 uM (EC80). […] IC50>100 uM for all three compounds. d, Concentration-dose response curves of the stimulatory activity of lauroyl tryptamine, tryptamine, and lauric acid on GPR132. […] For b, c, d, the curves span ten concentration points in duplicates from 100 to 0.0051 uM, with the error bar being the s.d. from duplicates. e, MS chromatogram (EIC ESI+[M+H]^+ m/z of lauroyl tryptamine, theoretical=343.2744, experimental=[…]) of the in vivo extract of E. rectale in RCM media (with no fed substrates). The samples are injected alongside a chemically synthesized and structurally verified standard. The * denotes lauroyl tryptamine. The production titer was determined to be 0.04 mg/L. f, Product titer of fatty acyl tryptamine from the in vivo extract of E. rectale in RCM, when fed with exogenous fatty acid (lauric acid, linoleic acid, oleic acid, docosahexaenoic acid, or α-linolenic acid). g, Mapping of human gut metatranscriptomic reads from subject subX316701492 (accession: SRX247340) onto a 80 kb region of the E. rectale genome centered on the FAA pathway (darker arrows, labeled “FAA”). The mean coverage of the 80 kb segment was 0.8 (SD=3.3), while the mean coverage of the FAA pathway by itself was 1.5 (SD=1.1). Housekeeping genes within this segment include tRNA synthetase (tR), carbohydrate metabolism (CM), and sugar transporter (ST) genes. h, Immunological and development role of the EBI2-oxysterol axis and its suppression by E. rectale-derived lauroyl tryptamine to possibly protect against IBD.
FAAs are known to modulate diverse biological functions by interacting with human GPCRs. The products of the FAA screen are either known GPCR ligands or appear to structurally mimic these molecules (FIG. 30). The FAAs were analyzed for activity against a panel of known and orphan human GPCRs using the DiscoverX platform. […]

Another assay has as its target P2RY4 (Homo sapiens, UniProt P51582). Description: Cell-based β-arrestin reporter assay (DiscoverX), P2RY4 antagonist mode: panel at 10 uM and concentration-response. The note with it: in the presence of native agonist UTP at 2.79 uM (EC80); ten concentrations 100 to 0.0051 uM; read-out: IC50, inhibitory activity on P2RY4. Here is the method:
FIGS. 31A-31H show GPCR activity assay of lauroyl tryptamine. a, Cell-based β-arrestin reporter assay (DiscoveRx) with a panel of 168 GPCRs with known ligands in agonist mode and antagonist mode, and also 73 orphan GPCRs in agonist mode at 10 uM. Agonist mode measures % activity of target GPCR by the compound, relative to the baseline value (0% activity) and maximum value with a known ligand, or twofold increase over baseline for orphan GPCR (100% activation). Antagonist mode measures % inhibition of target GPCR by the compound in the presence of a known ligand, relative to the value at the EC80 (0% inhibition) and basal value (100% inhibition). […] The production titer was determined to be 0.04 mg/L. f, Product titer of fatty acyl tryptamine from the in vivo extract of E. rectale in RCM, when fed with exogenous fatty acid (lauric acid, linoleic acid, oleic acid, docosahexaenoic acid, or α-linolenic acid). g, Mapping of human gut metatranscriptomic reads from subject subX316701492 (accession: SRX247340) onto a 80 kb region of the E. rectale genome centered on the FAA pathway (darker arrows, labeled “FAA”). […]
(§1) FAAs are known to modulate diverse biological functions by interacting with human GPCRs. […] The FAAs were analyzed for activity against a panel of known and orphan human GPCRs using the DiscoverX platform. […]

Assay [3] addresses T1, GPR132. Description: Cell-based β-arrestin reporter assay (DiscoverX), GPR132 agonist mode: orphan panel at 10 uM and concentration-response. Here is the method: FIGS. 31A-31H show GPCR activity assay of lauroyl tryptamine. a, Cell-based β-arrestin reporter assay (DiscoveRx) with a panel of 168 GPCRs with known ligands in agonist mode and antagonist mode, and also 73 orphan GPCRs in agonist mode at 10 uM. Agonist mode measures % activity of target GPCR by the compound, relative to the baseline value (0% activity) and maximum value with a known ligand, or twofold increase over baseline for orphan GPCR (100% activation). Antagonist mode measures % inhibition of target GPCR by the compound in the presence of a known ligand, relative to the value at the EC80 (0% inhibition) and basal value (100% inhibition). […] EBI2 antagonist activity (δ1%) is marked with an asterisk (*). b, Concentration-dose response curves of the inhibitory activity of lauroyl tryptamine, tryptamine, and lauric acid on EBI2 in the presence of the native agonist 7α,25-dihydroxycholesterol (7a,25-diHC) at 0.232 uM (EC80). […] IC50>100 uM for all three compounds. d, Concentration-dose response curves of the stimulatory activity of lauroyl tryptamine, tryptamine, and lauric acid on GPR132. […] For b, c, d, the curves span ten concentration points in duplicates from 100 to 0.0051 uM, with the error bar being the s.d. from duplicates. e, MS chromatogram (EIC ESI+[M+H]^+ m/z of lauroyl tryptamine, theoretical=343.2744, experimental=[…]) of the in vivo extract of E. rectale in RCM media (with no fed substrates). […] The production titer was determined to be 0.04 mg/L. f, Product titer of fatty acyl tryptamine from the in vivo extract of E. rectale in RCM, when fed with exogenous fatty acid (lauric acid, linoleic acid, oleic acid, docosahexaenoic acid, or α-linolenic acid). g, Mapping of human gut metatranscriptomic reads from subject subX316701492 (accession: SRX247340) onto a 80 kb region of the E. rectale genome centered on the FAA pathway (darker arrows, labeled “FAA”). […]
as §1
Background: Reporter assays use an easily measured gene product as a stand-in for the process of interest.

For the next assay, the target named is T2, PRLHR (Homo sapiens, UniProt P49683).
T2 sequence (P49683 1-370): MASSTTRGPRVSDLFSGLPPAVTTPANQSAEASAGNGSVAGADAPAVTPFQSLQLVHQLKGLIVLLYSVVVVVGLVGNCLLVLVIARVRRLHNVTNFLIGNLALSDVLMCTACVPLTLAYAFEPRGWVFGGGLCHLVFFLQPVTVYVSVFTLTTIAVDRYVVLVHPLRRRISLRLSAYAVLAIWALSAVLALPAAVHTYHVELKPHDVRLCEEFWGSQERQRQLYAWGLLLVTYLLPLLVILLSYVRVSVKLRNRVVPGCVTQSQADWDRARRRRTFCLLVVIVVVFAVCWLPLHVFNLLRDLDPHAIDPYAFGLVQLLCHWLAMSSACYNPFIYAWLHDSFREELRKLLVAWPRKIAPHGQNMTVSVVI
In words: Cell-based β-arrestin reporter GPCR panel (DiscoverX) at 10 uM, PRLHR. The note with it: compound at 10 uM. Here is the method: (§2) Cell-based β-arrestin reporter assay (DiscoveRx) with a panel of 168 GPCRs with known ligands in agonist mode and antagonist mode, and also 73 orphan GPCRs in agonist mode at 10 uM. Agonist mode measures % activity of target GPCR by the compound, relative to the baseline value (0% activity) and maximum value with a known ligand, or twofold increase over baseline for orphan GPCR (100% activation). Antagonist mode measures % inhibition of target GPCR by the compound in the presence of a known ligand, relative to the value at the EC80 (0% inhibition) and basal value (100% inhibition).
(§3) FAAs are known to modulate diverse biological functions by interacting with human GPCRs. The products of the FAA screen are either known GPCR ligands or appear to structurally mimic these molecules (FIG. 30). The FAAs were analyzed for activity against a panel of known and orphan human GPCRs using the DiscoverX platform. The major compound from the four human gut metagenome-derived pathways (oleoyl dopamine, oleoyl tyramine, oleoyl aminovaleric acid, and lauroyl tryptamine) were chemically synthesized and screened at 10 uM on a panel of 168 known GPCRs covering 60 distinct receptors in both agonist and antagonist mode and 73 orphan GPCRs in agonist mode. […]

A further assay addresses T3, NPSR1b (Homo sapiens, UniProt Q6W5P4).
T3 sequence (Q6W5P4 1-377 isoform Q6W5P4-4): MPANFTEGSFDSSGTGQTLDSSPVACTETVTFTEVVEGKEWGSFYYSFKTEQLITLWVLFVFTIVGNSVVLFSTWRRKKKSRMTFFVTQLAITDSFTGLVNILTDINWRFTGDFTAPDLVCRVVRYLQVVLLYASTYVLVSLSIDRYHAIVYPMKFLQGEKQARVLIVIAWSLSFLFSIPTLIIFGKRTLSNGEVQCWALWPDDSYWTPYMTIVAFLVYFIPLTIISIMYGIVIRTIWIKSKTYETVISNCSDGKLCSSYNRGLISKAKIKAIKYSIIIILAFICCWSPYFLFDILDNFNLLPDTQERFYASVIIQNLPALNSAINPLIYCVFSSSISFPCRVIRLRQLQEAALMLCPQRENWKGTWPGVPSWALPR
Description: Cell-based β-arrestin reporter GPCR panel (DiscoverX) at 10 uM, NPSR1b. The note with it: compound at 10 uM. Here is the method:
as §2, §3

For another assay, the target named is PTGER4 (Homo sapiens, UniProt P35408). Description: Cell-based β-arrestin reporter GPCR panel (DiscoverX) at 10 uM, PTGER4. The note with it: antagonist mode, compound at 10 uM. Here is the method: as §2, §3
Sequence of PTGER4 (P35408 whole entry): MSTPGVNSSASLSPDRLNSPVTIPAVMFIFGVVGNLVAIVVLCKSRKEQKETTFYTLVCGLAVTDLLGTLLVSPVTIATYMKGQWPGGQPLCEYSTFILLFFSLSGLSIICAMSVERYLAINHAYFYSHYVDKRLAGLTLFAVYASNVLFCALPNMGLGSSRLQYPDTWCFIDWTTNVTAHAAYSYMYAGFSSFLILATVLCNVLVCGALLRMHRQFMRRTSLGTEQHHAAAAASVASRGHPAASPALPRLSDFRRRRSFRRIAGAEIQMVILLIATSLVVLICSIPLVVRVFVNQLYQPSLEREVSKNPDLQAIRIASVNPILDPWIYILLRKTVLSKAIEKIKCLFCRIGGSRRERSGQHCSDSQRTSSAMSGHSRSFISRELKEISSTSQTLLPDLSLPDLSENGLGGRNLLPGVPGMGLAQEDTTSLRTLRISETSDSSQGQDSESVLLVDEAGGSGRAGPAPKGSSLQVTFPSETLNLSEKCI
Where [4] appears, read: agonist mode, ten concentrations 100 to 0.0051 uM, read-out: EC50, stimulatory activity on GPR132.

Sequence of EBI2/GPR183 (P32249 whole entry): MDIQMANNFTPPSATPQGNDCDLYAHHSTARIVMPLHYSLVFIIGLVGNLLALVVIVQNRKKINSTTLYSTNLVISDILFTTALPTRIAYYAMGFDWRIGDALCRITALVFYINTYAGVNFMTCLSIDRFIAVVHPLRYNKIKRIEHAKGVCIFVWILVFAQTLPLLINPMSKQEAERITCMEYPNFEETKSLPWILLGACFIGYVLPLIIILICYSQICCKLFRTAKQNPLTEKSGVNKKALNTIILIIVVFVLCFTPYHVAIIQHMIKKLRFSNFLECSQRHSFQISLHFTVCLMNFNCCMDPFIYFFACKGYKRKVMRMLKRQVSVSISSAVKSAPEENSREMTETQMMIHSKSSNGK
Sequence of P2RY4 (P51582 whole entry): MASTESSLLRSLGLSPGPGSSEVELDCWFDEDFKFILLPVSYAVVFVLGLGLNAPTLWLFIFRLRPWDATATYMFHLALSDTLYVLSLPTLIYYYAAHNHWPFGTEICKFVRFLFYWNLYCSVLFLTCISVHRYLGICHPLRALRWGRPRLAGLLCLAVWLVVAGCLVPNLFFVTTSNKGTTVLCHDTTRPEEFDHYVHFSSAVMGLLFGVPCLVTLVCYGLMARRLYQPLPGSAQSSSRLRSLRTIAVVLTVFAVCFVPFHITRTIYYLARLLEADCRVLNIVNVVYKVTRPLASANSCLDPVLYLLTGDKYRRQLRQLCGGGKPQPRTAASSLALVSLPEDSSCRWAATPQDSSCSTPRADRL

As to `CCCCCCCCCCCCCC(O)CC(=O)NCC(=O)O` (centres unmarked) [commendamine], the EC50 at GPR132 [1] was 11.8 µM.
Consider `N[C@@H](CCS)C(=O)O` [homocysteine], for which the “C protein enzymatic activity, fold difference with vs without condensation enzyme” value in assay [2] is on record as 2 fold.
`CCCCCCCCCCCC(=O)O` [lauric acid]: on EBI2/GPR183, the “inhibition on EBI2 (concentration-response, in words)” value was “Neither lauric acid nor tryptamine showed inhibition” and the IC50 was greater than 100 µM. For the same compound, the IC50 at P2RY4 was greater than 100 µM. Also, the EC50 at GPR132 [3] (setting [4]) is 25.2 µM.
On to `CCCCCCCCCCCC(=O)NCCc1c[nH]c2ccccc12` [lauroyl tryptamine], for which the results for the IC50 at EBI2/GPR183 and at P2RY4 were 0.98 µM and greater than 100 µM, respectively. Also, at GPR132 [3] (setting [4]), the EC50 turned out to be 1.45 µM.
As for `CCCCCCCC/C=C\CCCCCCCC(=O)NCCc1ccc(O)cc1` [oleoyl tyramine], on PRLHR, the “activity on PRLHR in GPCR panel” value was “shares activity”. Further, the “activity on NPSR1b in GPCR panel” value at NPSR1b is “shares activity”.
As to `NCCc1c[nH]c2ccccc12` [tryptamine], the “inhibition on EBI2 (concentration-response, in words)” value on EBI2/GPR183 is “Neither lauric acid nor tryptamine showed inhibition”. Moreover, the EC50 at GPR132 [3] is greater than 100 µM.
Turning to oleoyl aminovaleric acid, the “inhibition of PTGER4 in GPCR panel” value on PTGER4 was “Inhibition was observed”.
